Results reported in patent US20110136762A1, “FUNGICIDAL PYRIDAZINES” (E.I. Du Pont de Nemours and Company, priority 2008, published 2011).
Marks after values point to notes of the source that are not given here.

What was measured:
Assay type in all cases: in vivo
Erysiphe graminis = assay: Test A: wheat powdery mildew, preventive spray on wheat seedlings, visual disease rating; conditions: 100 = 100% disease control, 0 = no disease control relative to controls; for pest or weed control at 200 ppm / pest or weed control at 40 ppm: Blumeria graminis, 192 h
From the text: General protocol for preparing test suspensions for Tests A-F: […] The resulting test suspensions were then used in Tests A-F. The test suspensions were sprayed to the point of run-off on the test plants. All results are for 200 ppm (equivalent to a rate of 500 g/ha) except where followed by “*” which indicates 40 ppm. The test suspension was sprayed to the point of run-off on wheat seedlings. The following day the seedlings were inoculated with a spore dust of Erysiphe graminis, (the causal agent of wheat powdery mildew) and incubated in a growth chamber at 20° C. for 8 days, after which time visual disease ratings were made. […] A dash (-) indicates no test results. All results are for 200 ppm except where followed by “*”, which indicates 40 ppm.

[1] = tested on: Puccinia recondita f. sp. tritici; assay: Test B: wheat leaf rust, preventive spray on wheat seedlings, visual disease rating; conditions: 100 = 100% disease control, 0 = no disease control relative to controls; for pest or weed control at 200 ppm / pest or weed control at 40 ppm: 192 h
From the text: General protocol for preparing test suspensions for Tests A-F: […] The resulting test suspensions were then used in Tests A-F. The test suspensions were sprayed to the point of run-off on the test plants. All results are for 200 ppm (equivalent to a rate of 500 g/ha) except where followed by “*” which indicates 40 ppm. The test suspension was sprayed to the point of run-off on wheat seedlings. The following day the seedlings were inoculated with a spore suspension of Puccinia recondita f. sp. tritici (the causal agent of wheat leaf rust) and incubated in a saturated atmosphere at 20° C. for 24 h, and then moved to a growth chamber at 20° C. for 7 days, after which time visual disease ratings were made. […] A dash (-) indicates no test results. All results are for 200 ppm except where followed by “*”, which indicates 40 ppm.

Septoria tritici = assay: Test C: wheat leaf blotch, preventive spray on wheat seedlings, visual disease rating; conditions: 100 = 100% disease control, 0 = no disease control relative to controls; for pest or weed control at 200 ppm / pest or weed control at 40 ppm: Zymoseptoria tritici, 504 h
From the text: General protocol for preparing test suspensions for Tests A-F: […] The resulting test suspensions were then used in Tests A-F. The test suspensions were sprayed to the point of run-off on the test plants. All results are for 200 ppm (equivalent to a rate of 500 g/ha) except where followed by “*” which indicates 40 ppm. The test suspension was sprayed to the point of run-off on wheat seedlings. The following day the seedlings were inoculated with a spore suspension of Septoria tritici (the causal agent of wheat leaf blotch) and incubated in saturated atmosphere at 20° C. for 48 h, and moved to a growth chamber at 20° C. for 19 additional days, after which time visual disease ratings were made. […] A dash (-) indicates no test results. All results are for 200 ppm except where followed by “*”, which indicates 40 ppm.

Septoria nodorum = assay: Test D: wheat glume blotch, preventive spray on wheat seedlings, visual disease rating; conditions: 100 = 100% disease control, 0 = no disease control relative to controls; for pest or weed control at 200 ppm / pest or weed control at 40 ppm: Parastagonospora nodorum
From the text: General protocol for preparing test suspensions for Tests A-F: […] The resulting test suspensions were then used in Tests A-F. The test suspensions were sprayed to the point of run-off on the test plants. All results are for 200 ppm (equivalent to a rate of 500 g/ha) except where followed by “*” which indicates 40 ppm. The test suspension was sprayed to the point of run-off on wheat seedlings. The following day the seedlings were inoculated with a spore suspension of Septoria nodorum (the causal agent of wheat glume blotch) and incubated in a saturated atmosphere at 20° C. for 48 h, and then moved to a growth chamber at 20° C. for 7 days, after which time visual disease ratings were made. […] A dash (-) indicates no test results. All results are for 200 ppm except where followed by “*”, which indicates 40 ppm.

Alternaria solani = assay: Test E: tomato early blight, preventive spray on tomato seedlings, visual disease rating; conditions: 100 = 100% disease control, 0 = no disease control relative to controls; for pest or weed control at 200 ppm / pest or weed control at 40 ppm: Alternaria solani
From the text: General protocol for preparing test suspensions for Tests A-F: […] The resulting test suspensions were then used in Tests A-F. The test suspensions were sprayed to the point of run-off on the test plants. All results are for 200 ppm (equivalent to a rate of 500 g/ha) except where followed by “*” which indicates 40 ppm. The test suspension was sprayed to the point of run-off on tomato seedlings. […] A dash (-) indicates no test results. All results are for 200 ppm except where followed by “*”, which indicates 40 ppm.

Botrytis cinerea = assay: Test F: tomato Botrytis, preventive spray on tomato seedlings, visual disease rating; conditions: 100 = 100% disease control, 0 = no disease control relative to controls; for pest or weed control at 200 ppm / pest or weed control at 40 ppm: Botrytis cinerea
From the text: General protocol for preparing test suspensions for Tests A-F: […] The resulting test suspensions were then used in Tests A-F. The test suspensions were sprayed to the point of run-off on the test plants. All results are for 200 ppm (equivalent to a rate of 500 g/ha) except where followed by “*” which indicates 40 ppm. The test suspension was sprayed to the point of run-off on tomato seedlings. The following day the seedlings were inoculated with a spore suspension of Botrytis cinerea (the causal agent of tomato Botrytis) and incubated in saturated atmosphere at 20° C. for 48 h, and then moved to a growth chamber at 24° C. for 3 days, after which time visual disease ratings were made. […] A dash (-) indicates no test results. All results are for 200 ppm except where followed by “*”, which indicates 40 ppm.

SMILES | pest or weed control at 200 ppm (Septoria nodorum; 200 ppm) [%] | pest or weed control at 200 ppm (Alternaria solani; 200 ppm) [%] | pest or weed control at 200 ppm (Botrytis cinerea; 200 ppm) [%] | pest or weed control at 40 ppm (Erysiphe graminis; 40 ppm (marked *)) [%] | pest or weed control at 40 ppm ([1]; 40 ppm (marked *)) [%] | pest or weed control at 40 ppm (Septoria tritici; 40 ppm (marked *)) [%] | pest or weed control at 40 ppm (Septoria nodorum; 40 ppm (marked *)) [%] | pest or weed control at 40 ppm (Alternaria solani; 40 ppm (marked *)) [%] | pest or weed control at 40 ppm (Botrytis cinerea; 40 ppm (marked *)) [%] | other results
COc1cc(OC)cc(-c2c(-c3cc(F)c(F)cc3F)cnnc2-c2ccccc2F)c1 [Compound 27, 4-(3,5-dimethoxyphenyl)-3-(2-fluorophenyl)-5-(2,4,5-trifluorophenyl)pyridazine] | 84 | 99 | 100 |  |  |  |  |  |  | pest or weed control at 200 ppm (Erysiphe graminis; 200 ppm): 89%; pest or weed control at 200 ppm ([1]; 200 ppm): 100%; pest or weed control at 200 ppm (Septoria tritici; 200 ppm): 99%
COc1cc(OC)cc(-c2c(-c3ccccc3F)nnc(C)c2-c2c(F)cc(OC)cc2F)c1 [Compound 28, 4-(2,6-difluoro-4-methoxyphenyl)-5-(3,5-dimethoxyphenyl)-6-(2-fluorophenyl)-3-methylpyridazine] |  |  |  | 85 | 100 | 97 | 100 | 100 | 100 | 
COc1cc(OC)cc(-c2c(-c3ccccc3F)nnc(C)c2-c2c(F)cc(OCCCN(C)C)cc2F)c1 [Compound 29, 3-[4-[5-(3,5-dimethoxyphenyl)-6-(2-fluorophenyl)-3-methyl-4-pyridazinyl]-3,5-difluorophenoxy]-N,N-dimethyl-1-propanamine] | 92 | 99 | 99 |  |  |  |  |  |  | pest or weed control at 200 ppm (Erysiphe graminis; 200 ppm): 92%; pest or weed control at 200 ppm ([1]; 200 ppm): 100%; pest or weed control at 200 ppm (Septoria tritici; 200 ppm): 98%
CNCCCOc1cc(F)c(-c2c(C)nnc(-c3ccccc3F)c2-c2cc(OC)cc(OC)c2)c(F)c1 [Compound 30, 3-[4-[5-(3,5-dimethoxyphenyl)-6-(2-fluorophenyl)-3-methyl-4-pyridazinyl]-3,5-difluorophenoxy]-N-methyl-1-propanamine] | 98 | 98 | 100 |  |  |  |  |  |  | pest or weed control at 200 ppm (Erysiphe graminis; 200 ppm): 89%; pest or weed control at 200 ppm ([1]; 200 ppm): 100%; pest or weed control at 200 ppm (Septoria tritici; 200 ppm): 99%
COc1cc(OC)c(Cl)c(-c2c(-c3ccccc3F)nnc(C)c2-c2c(F)cc(F)cc2F)c1 [Compound 31, 4-(2-chloro-3,5-dimethoxyphenyl)-3-(2-fluorophenyl)-6-methyl-5-(2,4,6-trifluorophenyl)pyridazine] |  |  |  | 97 | 100 | 99 | 100 | 100 | 100 | 
COc1cc(OC)c(Br)c(-c2c(-c3ccccc3F)nnc(C)c2-c2c(F)cc(F)cc2F)c1 [Compound 32] |  |  |  |  |  |  |  |  |  | Test A rating (disease control, wheat powdery mildew) (Erysiphe graminis; 40 ppm (marked *)): 90* %; Test B rating (disease control, wheat leaf rust) ([1]; 40 ppm (marked *)): 100* %; Test C rating (disease control, wheat leaf blotch) (Septoria tritici; 40 ppm (marked *)): 98* %; Test D rating (disease control, wheat glume blotch) (Septoria nodorum; 40 ppm (marked *)): 99* %; Test E rating (disease control, tomato early blight) (Alternaria solani; 40 ppm (marked *)): 99* %; Test F rating (disease control, tomato Botrytis) (Botrytis cinerea; 40 ppm (marked *)): 100* %
COc1cc(-c2c(-c3ccccc3F)nnc(C)c2-c2c(F)cc(F)cc2F)cc(OC)c1Cl [Compound 33] |  |  |  |  |  |  |  |  |  | Test A rating (disease control, wheat powdery mildew) (Erysiphe graminis; 40 ppm (marked *)): 0* %; Test B rating (disease control, wheat leaf rust) ([1]; 40 ppm (marked *)): 97* %; Test C rating (disease control, wheat leaf blotch) (Septoria tritici; 40 ppm (marked *)): 95* %; Test D rating (disease control, wheat glume blotch) (Septoria nodorum; 40 ppm (marked *)): 0* %; Test E rating (disease control, tomato early blight) (Alternaria solani; 40 ppm (marked *)): 61* %; Test F rating (disease control, tomato Botrytis) (Botrytis cinerea; 40 ppm (marked *)): 99* %
COc1cc(OC)cc(-c2c(-c3ccccc3)nnc(Cl)c2-c2c(F)cc(F)cc2F)c1 [Compound 34] |  |  |  |  |  |  |  |  |  | Test A rating (disease control, wheat powdery mildew) (Erysiphe graminis; 200 ppm): 99%; Test B rating (disease control, wheat leaf rust) ([1]; 200 ppm): 100%; Test C rating (disease control, wheat leaf blotch) (Septoria tritici; 200 ppm): 100%; Test D rating (disease control, wheat glume blotch) (Septoria nodorum; 200 ppm): 93%; Test E rating (disease control, tomato early blight) (Alternaria solani; 200 ppm): 99%; Test F rating (disease control, tomato Botrytis) (Botrytis cinerea; 200 ppm): 100%
COc1cc(OC)cc(-c2c(-c3ccccc3)nnc(C)c2-c2c(F)cc(F)cc2F)c1 [Compound 35, 4-(3,5-dimethoxyphenyl)-6-methyl-3-phenyl-5-(2,4,6-trifluorophenyl)pyridazine] | 95 | 99 | 99 | 90 | 100 | 100 |  |  |  | 
COc1cc(OC)c(Cl)c(-c2c(-c3ccccc3)nnc(C)c2-c2c(F)cc(F)cc2F)c1 [Compound 36, 4-(2-chloro-3,5-dimethoxyphenyl)-6-methyl-3-phenyl-5-(2,4,6-trifluorophenyl)pyridazine] |  |  |  | 98 | 99 | 99 | 100 | 99 | 99 | 
COc1cc(OC)cc(-c2c(-c3ccccc3)nnc(C)c2-c2c(F)cc(OC)cc2F)c1 [Compound 37, 5-(2,6-difluoro-4-methoxyphenyl)-4-(3,5-dimethoxyphenyl)-6-methyl-3-phenylpyridazine] |  |  |  | 69 | 100 | 98 | 99 | 99 | 99 | 
COc1cc(OC)cc(-c2c(-c3ccccc3F)nnc(Cl)c2-c2c(F)cc(F)c([Si](C)(C)C)c2F)c1 [Compound 38, 3-chloro-5-(3,5-dimethoxyphenyl)-6-(2-fluorophenyl)-4-[2,4,6-trifluoro-3-(trimethylsilyl)phenyl]pyridazine] |  |  |  | 0 | 98 | 94 | 0 | 26 | 99 | 
Fc1cncc(-c2c(-c3ccccc3F)nnc(Cl)c2-c2c(F)cc(F)cc2F)c1 [Compound 39] |  |  |  |  |  |  |  |  |  | Test A rating (disease control, wheat powdery mildew) (Erysiphe graminis; 40 ppm (marked *)): 100* %; Test B rating (disease control, wheat leaf rust) ([1]; 40 ppm (marked *)): 100* %; Test C rating (disease control, wheat leaf blotch) (Septoria tritici; 40 ppm (marked *)): 100* %; Test D rating (disease control, wheat glume blotch) (Septoria nodorum; 40 ppm (marked *)): 100* %; Test E rating (disease control, tomato early blight) (Alternaria solani; 40 ppm (marked *)): 100* %; Test F rating (disease control, tomato Botrytis) (Botrytis cinerea; 40 ppm (marked *)): 100* %
